“And” between values parts separate entries of the source, which are not always exact repeats. Equal values may be shown once.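 Cells were grown in 96-well plates and exposed to each compound for 48 hours at five concentrations; endpoints were interpolated linearly between bracketing concentrations, or set to the highest concentration if not reached. At the GI50, growth is halved. TGI is the concentration that stops growth completely.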
What was measured:
Experiment in all cases: inhibition of tumour cell growth, NCI panel, 48 h
CCRF-CEM leukemia = test system: CCRF-CEM leukemia
EKVX NSCLC = test system: EKVX NSCLC
HCT-116 colon = test system: HCT-116 colon
HOP-92 NSCLC = test system: HOP-92 NSCLC
M19-MEL melanoma = test system: M19-MEL melanoma
SK-OV-3 ovarian = test system: SK-OV-3 ovarian
UACC-257 melanoma = test system: UACC-257 melanoma
MCF7 breast = test system: MCF7 breast
MDA-MB-231 breast = test system: MDA-MB-231 breast
MDA-N = test system: MDA-N

Row | SMILES | TGI (CCRF-CEM leukemia) | TGI (EKVX NSCLC) | TGI (HCT-116 colon) | TGI (HOP-92 NSCLC) | TGI (M19-MEL melanoma) | TGI (SK-OV-3 ovarian) | TGI (UACC-257 melanoma) | TGI (MCF7 breast) | TGI (MDA-MB-231 breast) | TGI (MDA-N) | GI50 (M19-MEL melanoma) | GI50 (MCF7 breast) | GI50 (MDA-N) | GI50 (SK-OV-3 ovarian) | GI50 (UACC-257 melanoma)
1 | NS(=O)(=O)C1CCCCC1C(=O)NNC(=O)C(=O)Nc1nc(=S)[nH][nH]1 (centres undefined) | > 100 µM | > 100 µM | > 100 µM | > 100 µM | > 100 µM | > 100 µM | > 100 µM |  |  |  |  |  |  |  | 
2 | NS(=O)(=O)c1cc2c(cc1Cl)NC(C(=O)NNC(=O)c1ccncc1)=NS2(=O)=O | > 100 µM | > 100 µM | > 100 µM | > 100 µM | > 100 µM | > 100 µM | > 100 µM |  |  |  |  |  |  |  | 
3 | CCOC(=O)N/N=C(/N)Cc1ccc(Cl)cc1 | > 100 µM | > 100 µM | > 100 µM | > 100 µM |  | > 100 µM | > 100 µM | > 100 µM | > 100 µM | > 100 µM |  |  |  |  | 
4 | CCOC(=O)c1ccc(-c2cccs2)[nH]1 | > 100 µM | > 100 µM | > 100 µM | > 76.5 µM |  | > 100 µM | > 100 µM | > 100 µM | > 100 µM | > 100 µM |  |  |  |  | 
5 | Cc1ccc(C)c(C(=O)CC2OC(O)C(Cl)C2Cl)c1 (centres undefined) | > 100 µM | > 100 µM | > 100 µM | 77.3 µM | > 100 µM | > 100 µM | > 100 µM |  |  |  |  |  |  |  | 
6 | CO[C@@H](c1ccccc1)[C@H](O)[C@@](O)(c1ccccc1)P(=O)(OC)OC | > 100 µM | > 100 µM | > 100 µM | > 100 µM |  | > 100 µM | > 100 µM | > 100 µM | > 100 µM | > 100 µM |  |  |  |  | 
7 | O=[N+]([O-])c1cccc2c1[nH]c1c(-c3ccccc3)nccc12 | 21.9 µM | > 29.5 µM | 11.2 µM | 3.05 µM | 6.14 µM | 7.75 µM | 6.29 µM | > 24.8 µM |  |  |  |  |  |  | 
8 | C/C(=C\CNc1ncnc2c1ncn2CCC#N)CO | > 100 µM | > 100 µM | > 100 µM | > 100 µM |  | > 100 µM | > 100 µM | > 100 µM | > 100 µM | > 100 µM |  |  |  |  | 
9 | CCOC(=O)C(NC(=O)c1cccc(Cl)c1)(N1CCN(c2cc3c(cc2F)c(=O)c(C(=O)O)cn3CC)CC1)C(F)(F)F (centres undefined) | 10.7 µM | 68.3 µM | 27.6 µM | 33.4 µM |  | 64.2 µM | 54.9 µM | 37.2 µM | 36.3 µM | 28.2 µM |  |  |  |  | 
10 | Cc1cc(NS(=O)(=O)c2ccc(NC(NC(=O)OC(C)C)(C(F)(F)F)C(F)(F)F)cc2)nc(C)n1 | > 100 µM | > 100 µM | > 100 µM | > 100 µM |  | > 100 µM | > 100 µM | > 100 µM | > 100 µM | > 100 µM |  |  |  |  | 
11 | O=C1c2sccc2C(=O)c2c(CO)csc21 | > 51.6 µM | 26.6 µM | 9.47 µM | 26.1 µM |  | 28.2 µM | 5.24 µM | 18.9 µM | 50.1 µM | 3.16 µM |  |  |  |  | 
12 | COc1ccc(Sc2ccccc2[N+](=O)[O-])cc1 | > 100 µM | > 100 µM | > 100 µM | > 100 µM | > 100 µM | > 100 µM | > 100 µM |  |  |  |  |  |  |  | 
13 | Clc1cc2ncn(C3CCCO3)c2cc1Cl (centres undefined) | > 100 µM | > 100 µM | > 100 µM | > 100 µM |  | > 100 µM | > 100 µM | > 100 µM | > 100 µM | > 100 µM |  |  |  |  | 
14 | CO/C(N)=C(\C#N)N=Cc1cccs1 | > 100 µM | > 100 µM | > 100 µM | > 100 µM |  | > 100 µM | > 100 µM | > 100 µM | > 100 µM | 90.1 µM |  |  |  |  | 
15 | COc1ccc2c(C=O)c3n(c(=O)c2c1OC)CCc1cc2c(cc1-3)OCO2 | > 100 µM | > 100 µM | > 100 µM | 88.5 µM |  | > 100 µM | > 100 µM | > 100 µM | > 100 µM | > 100 µM |  |  |  |  | 
16 | CCN(CC)CCCNc1nnc(C)c2[nH]c3ccccc3c12 | 63.9 µM | 63.4 µM | 69.4 µM | 55 µM |  | 46.8 µM | 31.8 µM | > 100 µM | 39.5 µM | 29.2 µM |  |  |  |  | 

Row | SMILES | TGI (CCRF-CEM leukemia) | TGI (EKVX NSCLC) | TGI (HCT-116 colon) | TGI (HOP-92 NSCLC) | TGI (M19-MEL melanoma) | TGI (SK-OV-3 ovarian) | TGI (UACC-257 melanoma) | TGI (MCF7 breast) | TGI (MDA-MB-231 breast) | TGI (MDA-N) | GI50 (M19-MEL melanoma) | GI50 (MCF7 breast) | GI50 (MDA-N) | GI50 (SK-OV-3 ovarian) | GI50 (UACC-257 melanoma)
17 | CNC(=O)N(C)C(=O)c1ccccc1C(=O)N(C)C(=O)NC | > 10 µM | > 10 µM | > 10 µM | > 10 µM |  | > 10 µM | > 10 µM | > 10 µM | > 10 µM | > 10 µM |  |  |  |  | 
18 | CCCCCCCCCCCCCCCC(=O)OCC(COP(=O)(O)OCCNC(=O)CCSSc1ccccn1)OC(=O)CCCCCCCCCCCCCCC (centres undefined) | > 100 µM | > 100 µM | > 100 µM | > 100 µM |  | > 100 µM | > 100 µM | > 100 µM | > 100 µM | > 100 µM |  |  |  |  | 
19 | CCOC(=O)C1(NC(=O)OC(C)(C)C)CCc2[nH]oc(=O)c2C1 (centres undefined) | > 100 µM | > 100 µM | > 100 µM | > 100 µM |  | > 100 µM | > 100 µM | > 100 µM | > 100 µM | > 100 µM |  |  |  |  | 
20 | COC1=C(C)C(=O)C2=C(C1=O)C1C3CC4=C(C(=O)C(OC)=C(C)C4=O)C(CNC(=O)C(C)=O)N3C(C#N)C(C2)N1C (centres undefined) |  |  |  | 0.00425 µM and 0.0162 µM |  | 0.417 µM and 1.55 µM |  | 0.359 µM and 0.379 µM | 0.0127 µM and 0.0154 µM | 0.026 µM | 0.0946 nM | 0.0742 nM | 0.00351 µM | 0.00656 µM and 0.0382 µM | 5.76 pM
21 | O=C(Cn1c(-c2ccccc2)cc2ccccc21)N1CCOCC1 | > 100 µM | > 100 µM | > 100 µM | > 100 µM |  | > 100 µM | > 100 µM | > 100 µM | > 100 µM | > 100 µM |  |  |  |  | 
22 | COC(=O)C1=C(C)C(=O)C2(CCCCCC2C(=O)OC)C1 (centres undefined) | > 100 µM | > 100 µM | > 100 µM | > 100 µM | > 100 µM | > 100 µM | > 100 µM |  |  |  |  |  |  |  | 
23 | COc1ccc(-c2cc(=O)c3cc(OC)c(OC)cc3[nH]2)cc1OC | > 100 µM | > 100 µM | > 100 µM | > 100 µM |  | > 100 µM | > 100 µM | > 100 µM | > 100 µM | > 100 µM |  |  |  |  | 
24 | N#Cc1c(N)n(-c2nc3ccccc3s2)c(=O)c2cc([N+](=O)[O-])ccc12 | 18.9 µM | > 56.3 µM | > 41.9 µM | 42.3 µM |  | 98.1 µM | 69.3 µM | 41.3 µM | 50.5 µM | > 82.7 µM |  |  |  |  | 
25 | CC1SCCc2nc3ccccc3n21 (centres undefined) | > 100 µM | > 100 µM | > 100 µM | > 100 µM |  | > 100 µM | > 100 µM | > 100 µM | > 100 µM | > 100 µM |  |  |  |  | 
26 | Cc1nnc(N)s/c1=N/O | > 100 µM | > 100 µM | > 100 µM | > 100 µM |  | > 100 µM | > 100 µM | > 100 µM | > 100 µM | > 100 µM |  |  |  |  | 
27 | COC(=O)c1ccccc1NCc1cc(O)ccc1O | > 46.3 µM | > 68.1 µM | 35.2 µM | 35.3 µM | 31.7 µM | > 100 µM | 31.2 µM | 38 µM |  | 31.8 µM |  |  |  |  | 
28 | Cc1c(Cl)cc(C(C)(C)C)c(O)c1Cc1c(C)c(Cl)cc(C(C)(C)C)c1O | 1.54 µM | 6.41 µM | 3.47 µM | 1.18 µM |  | 10 µM | 6.29 µM | 7.28 µM | 3.49 µM | 8.71 µM |  |  |  |  | 
29 | CC(=O)Oc1c(OC(C)C)cc(=O)n2ccsc12 | 70.4 µM | > 100 µM | > 100 µM | > 100 µM |  | > 100 µM | > 100 µM | > 100 µM | > 100 µM | > 100 µM |  |  |  |  | 
30 | CC(=O)Nc1ccc(C(=O)NN2C(=O)CSC2c2ccccc2)cc1 (centres undefined) | > 100 µM | > 100 µM | > 100 µM | > 100 µM |  | > 100 µM | > 100 µM | > 100 µM | > 100 µM | > 100 µM |  |  |  |  | 
31 | CC(C)=C[C@@H]1C[C@H](C)[C@H]2CC[C@H](C)[C@H]3C(=O)C(O)=C(C)C(=O)[C@]123 | > 100 µM | > 100 µM | > 100 µM | > 100 µM |  | > 100 µM | > 100 µM | > 100 µM | > 100 µM | > 100 µM |  |  |  |  | 

— PubChem BioAssay (NCI)
